Columns and labels:
[1] = Single dose study: urinary excretion of eplerenone and open lactone ring form; assay type: in vivo, humans
Description: The study employed seven parallel dose groups of eight healthy male humans.
The plasma samples collected from subjects dosed with eplerenone were assayed for concentrations of eplerenone and the open lactone ring form of eplerenone. […] A subset of plasma samples was also assayed for testosterone levels. The urine collected was analyzed to determine concentrations and amounts of eplerenone and the open lactone ring form of eplerenone, the amount of sodium and potassium excreted, and the urinary log10 (sodium/potassium) ratio.

plasma proteins = assay: Binding of radioactivity / [14C]eplerenone to plasma proteins; assay type: in vitro ADME, humans
Description: The mean concentration of total radioactivity in these samples was 2.39 μg/mL.

## COC(=O)C1CC2=CC(=O)CCC2(C)C23OC2CC2(C)C(CC[C@@]24CCC(=O)O4)C13 (stereo partly drawn) [eplerenone, methyl hydrogen 9,11α-epoxy-17α-hydroxy-3-oxopregn-4-ene-7α,21-dicarboxylate, γ-lactone]
[1]; 10 mg dose, 0 to 2 hours
  Amount of Eplerenone Excreted in Urine: (21.6) mcg
  Concentration of Eplerenone Excreted in Urine: 278.0 ng/mL
[1]; 10 mg dose, 0 to 24 hours
  Amount of Eplerenone Excreted in Urine: (78.8) mcg
[1]; 10 mg dose, 2 to 4 hours
  Amount of Eplerenone Excreted in Urine: (35.8) mcg
  Concentration of Eplerenone Excreted in Urine: 191.1 ng/mL
[1]; 10 mg dose, 4 to 6 hours
  Amount of Eplerenone Excreted in Urine: (16.5) mcg
  Concentration of Eplerenone Excreted in Urine: 107.2 ng/mL
[1]; 10 mg dose, 6 to 8 hours
  Amount of Eplerenone Excreted in Urine: (7.6) mcg
  Concentration of Eplerenone Excreted in Urine: 63.8 ng/mL
[1]; 10 mg dose, 8 to 10 hours
  Amount of Eplerenone Excreted in Urine: (0) mcg
  Concentration of Eplerenone Excreted in Urine: 0 ng/mL
[1]; 10 mg dose, 10 to 12 hours
  Amount of Eplerenone Excreted in Urine: (0) mcg
  Concentration of Eplerenone Excreted in Urine: 0 ng/mL
[1]; 10 mg dose, 12 to 14 hours
  Amount of Eplerenone Excreted in Urine: (0) mcg
  Concentration of Eplerenone Excreted in Urine: 0 ng/mL
[1]; 10 mg dose, 14 to 16 hours
  Amount of Eplerenone Excreted in Urine: (0) mcg
  Concentration of Eplerenone Excreted in Urine: 0 ng/mL
[1]; 10 mg dose, 16 to 24 hours
  Amount of Eplerenone Excreted in Urine: (0) mcg
  Concentration of Eplerenone Excreted in Urine: 0 ng/mL
[1]; 10 mg dose, −9 to 0 hours
  Amount of Eplerenone Excreted in Urine: (0) mcg
  Concentration of Eplerenone Excreted in Urine: 0 ng/mL
[1]; 50 mg dose, 0 to 2 hours
  Amount of Eplerenone Excreted in Urine: (99.2) mcg
  Concentration of Eplerenone Excreted in Urine: 1252.2 ng/mL
[1]; 50 mg dose, 0 to 24 hours
  Amount of Eplerenone Excreted in Urine: (410.6) mcg
[1]; 50 mg dose, 2 to 4 hours
  Amount of Eplerenone Excreted in Urine: (175.3) mcg
  Concentration of Eplerenone Excreted in Urine: 1064.6 ng/mL
[1]; 50 mg dose, 4 to 6 hours
  Amount of Eplerenone Excreted in Urine: (60.6) mcg
  Concentration of Eplerenone Excreted in Urine: 518.3 ng/mL
[1]; 50 mg dose, 6 to 8 hours
  Amount of Eplerenone Excreted in Urine: (30.7) mcg
  Concentration of Eplerenone Excreted in Urine: 307.3 ng/mL
[1]; 50 mg dose, 8 to 10 hours
  Amount of Eplerenone Excreted in Urine: (27.6) mcg
  Concentration of Eplerenone Excreted in Urine: 172.4 ng/mL
[1]; 50 mg dose, 10 to 12 hours
  Amount of Eplerenone Excreted in Urine: (16.5) mcg
  Concentration of Eplerenone Excreted in Urine: 72.7 ng/mL
[1]; 50 mg dose, 12 to 14 hours
  Amount of Eplerenone Excreted in Urine: (11.3) mcg
  Concentration of Eplerenone Excreted in Urine: 23.1 ng/mL
[1]; 50 mg dose, 14 to 16 hours
  Amount of Eplerenone Excreted in Urine: (1.5) mcg
  Concentration of Eplerenone Excreted in Urine: 21.6 ng/mL
[1]; 50 mg dose, 16 to 24 hours
  Amount of Eplerenone Excreted in Urine: (4.0) mcg
  Concentration of Eplerenone Excreted in Urine: 13.1 ng/mL
[1]; 50 mg dose, −9 to 0 hours
  Amount of Eplerenone Excreted in Urine: (0) mcg
  Concentration of Eplerenone Excreted in Urine: 0 ng/mL
[1]; 100 mg dose, 0 to 2 hours
  Amount of Eplerenone Excreted in Urine: (360.2) mcg
  Concentration of Eplerenone Excreted in Urine: 2623.3 ng/mL
[1]; 100 mg dose, 0 to 24 hours
  Amount of Eplerenone Excreted in Urine: (1271.4) mcg
[1]; 100 mg dose, 2 to 4 hours
  Amount of Eplerenone Excreted in Urine: (407.6) mcg
  Concentration of Eplerenone Excreted in Urine: 2305.6 ng/mL
[1]; 100 mg dose, 4 to 6 hours
  Amount of Eplerenone Excreted in Urine: (285.1) mcg
  Concentration of Eplerenone Excreted in Urine: 1157.3 ng/mL
[1]; 100 mg dose, 6 to 8 hours
  Amount of Eplerenone Excreted in Urine: (158.8) mcg
  Concentration of Eplerenone Excreted in Urine: 627.6 ng/mL
[1]; 100 mg dose, 8 to 10 hours
  Amount of Eplerenone Excreted in Urine: (69.1) mcg
  Concentration of Eplerenone Excreted in Urine: 362.9 ng/mL
[1]; 100 mg dose, 10 to 12 hours
  Amount of Eplerenone Excreted in Urine: (44.7) mcg
  Concentration of Eplerenone Excreted in Urine: 146.6 ng/mL
[1]; 100 mg dose, 12 to 14 hours
  Amount of Eplerenone Excreted in Urine: (26.6) mcg
  Concentration of Eplerenone Excreted in Urine: 110.3 ng/mL
[1]; 100 mg dose, 14 to 16 hours
  Amount of Eplerenone Excreted in Urine: (6.6) mcg
  Concentration of Eplerenone Excreted in Urine: 36.5 ng/mL
[1]; 100 mg dose, 16 to 24 hours
  Amount of Eplerenone Excreted in Urine: (2.7) mcg
  Concentration of Eplerenone Excreted in Urine: 7.1 ng/mL
[1]; 100 mg dose, −9 to 0 hours
  Amount of Eplerenone Excreted in Urine: (0) mcg
  Concentration of Eplerenone Excreted in Urine: 0 ng/mL
[1]; 300 mg dose, 0 to 2 hours
  Amount of Eplerenone Excreted in Urine: (677.7) mcg
  Concentration of Eplerenone Excreted in Urine: 9370.1 ng/mL
[1]; 300 mg dose, 0 to 24 hours
  Amount of Eplerenone Excreted in Urine: (2872.3) mcg
[1]; 300 mg dose, 2 to 4 hours
  Amount of Eplerenone Excreted in Urine: (873.7) mcg
  Concentration of Eplerenone Excreted in Urine: 6465.9 ng/mL
[1]; 300 mg dose, 4 to 6 hours
  Amount of Eplerenone Excreted in Urine: (672.6) mcg
  Concentration of Eplerenone Excreted in Urine: 3865.2 ng/mL
[1]; 300 mg dose, 6 to 8 hours
  Amount of Eplerenone Excreted in Urine: (337.0) mcg
  Concentration of Eplerenone Excreted in Urine: 2237.8 ng/mL
[1]; 300 mg dose, 8 to 10 hours
  Amount of Eplerenone Excreted in Urine: (307.9) mcg
  Concentration of Eplerenone Excreted in Urine: 1208.6 ng/mL
[1]; 300 mg dose, 10 to 12 hours
  Amount of Eplerenone Excreted in Urine: (162.4) mcg
  Concentration of Eplerenone Excreted in Urine: 542.4 ng/mL
[1]; 300 mg dose, 12 to 14 hours
  Amount of Eplerenone Excreted in Urine: (97.4) mcg
  Concentration of Eplerenone Excreted in Urine: 419.6 ng/mL
[1]; 300 mg dose, 14 to 16 hours
  Amount of Eplerenone Excreted in Urine: (52.2) mcg
  Concentration of Eplerenone Excreted in Urine: 292.6 ng/mL
[1]; 300 mg dose, 16 to 24 hours
  Amount of Eplerenone Excreted in Urine: (50.4) mcg
  Concentration of Eplerenone Excreted in Urine: 126.4 ng/mL
[1]; 300 mg dose, −9 to 0 hours
  Amount of Eplerenone Excreted in Urine: (0) mcg
  Concentration of Eplerenone Excreted in Urine: 0 ng/mL
[1]; 1000 mg dose, 0 to 2 hours
  Amount of Eplerenone Excreted in Urine: (1482.0) mcg
  Concentration of Eplerenone Excreted in Urine: 17858.6 ng/mL
[1]; 1000 mg dose, 0 to 24 hours
  Amount of Eplerenone Excreted in Urine: (17246.6) mcg
[1]; 1000 mg dose, 2 to 4 hours
  Amount of Eplerenone Excreted in Urine: (5983.3) mcg
  Concentration of Eplerenone Excreted in Urine: 24460.3 ng/mL
[1]; 1000 mg dose, 4 to 6 hours
  Amount of Eplerenone Excreted in Urine: (4041.5) mcg
  Concentration of Eplerenone Excreted in Urine: 13899.7 ng/mL
[1]; 1000 mg dose, 6 to 8 hours
  Amount of Eplerenone Excreted in Urine: (2083.0) mcg
  Concentration of Eplerenone Excreted in Urine: 8782.1 ng/mL
[1]; 1000 mg dose, 8 to 10 hours
  Amount of Eplerenone Excreted in Urine: (1853.9) mcg
  Concentration of Eplerenone Excreted in Urine: 4491.0 ng/mL
[1]; 1000 mg dose, 10 to 12 hours
  Amount of Eplerenone Excreted in Urine: (1177.2) mcg
  Concentration of Eplerenone Excreted in Urine: 2361.1 ng/mL
[1]; 1000 mg dose, 12 to 14 hours
  Amount of Eplerenone Excreted in Urine: (892.8) mcg
  Concentration of Eplerenone Excreted in Urine: 3183.7 ng/mL
[1]; 1000 mg dose, 14 to 16 hours
  Amount of Eplerenone Excreted in Urine: (340.5) mcg
  Concentration of Eplerenone Excreted in Urine: 1405.2 ng/mL
[1]; 1000 mg dose, 16 to 24 hours
  Amount of Eplerenone Excreted in Urine: (366.0) mcg
  Concentration of Eplerenone Excreted in Urine: 658.0 ng/mL
[1]; 1000 mg dose, −9 to 0 hours
  Amount of Eplerenone Excreted in Urine: (0) mcg
  Concentration of Eplerenone Excreted in Urine: 0 ng/mL
Plasma proteins; 1.5 hour plasma samples, mean
  total radioactivity bound to plasma proteins: 49.4%
Plasma proteins; [14C]eplerenone spiked into frozen control plasma, 14.5 μg/mL
  percentage of eplerenone bound: 40.4%

Reference: patent US6410054B1, “Immediate release eplerenone compositions” (G. D. Searle & Co., priority 1998, dated 2002)
